The values that follow come from patent publication US9029366B2, “Substituted bicyclic alkoxy pyrazole analogs as allosteric modulators of mGluR5 receptors” (Vanderbilt University, priority 2012, dated 2015).

In data set [1] the target is human mGluR5 (Homo sapiens, UniProt P41594). The data set can be described thus: Cell-based functional Ca2+ mobilization assay (FDSS), potentiation of glutamate EC20 response, HEK293A cells transfected with human mGluR5a (H10H or H12H cell line). As to conditions: H10H cell line expressing recombinant human mGluR5, in presence of glutamate EC20, ** = compound is an antagonist; for EC50: read-out: pEC50 (converted); for Emax: HEK293-A. On the procedure:
Human embryonic kidney (HEK) cells transfected with rat mGluR5 were plated in clear bottom assay plates for assay in a Functional Drug Screening System (FDSS). In the alternative assay, HEK cells transfected with human mGluR5 were plated for assay in the FDSS. In some cases the HEK cells transfected with human mGluR5 are the H10H cell line. Alternatively, the HEK cells transfected with human mGluR5 are the H12H cell line. […] The cells were loaded with a Ca^2+-sensitive fluorescent dye (e.g., Fluo-4), and the plates were washed and placed in the FDSS instrument. After establishment of a fluorescence baseline for about three seconds, the compounds of the present invention were added to the cells, and the response in cells was measured. Five minutes later, an mGluR5 agonist (e.g., glutamate, 3,5-dihydroxyphenylglycine, or quisqualate) was added to the cells, and the response of the cells was measured.
The above described assay can be operated in two modes. In the first mode, a range of concentrations of the present compounds were added to cells, followed by a single fixed concentration of agonist. If a compound acted as a potentiator, an EC50 value for potentiation and a maximum extent of potentiation by the compound at this concentration of agonist was determined by non-linear curve fitting. In the second mode, several fixed concentrations of the present compounds were added to various wells on a plate, followed by a range of concentrations of agonist for each concentration of present compound; the EC50 values for the agonist at each concentration of compound were determined by non-linear curve fitting. A decrease in the EC50 value of the agonist with increasing concentrations of the present compounds (a leftward shift of the agonist concentration-response curve) is an indication of the degree of mGluR5 potentiation at a given concentration of the present compound. An increase in the EC50 value of the agonist with increasing concentrations of the present compounds (a rightward shift of the agonist concentration-response curve) is an indication of the degree of mGluR5 antagonism at a given concentration of the present compound. The second mode also indicates whether the present compounds also affect the maximum response to mGluR5 to agonists.
Human mGluR5a cDNA in pCMV6-XL6 mammalian expression plasmid was purchased from OriGene Technologies, Inc. (catalogue number SC326357) and subcloned into pcDNA3.1(−). Human embryonic kidney (HEK)293A cells were then transfected with human mGluR5a pcDNA3.1(−) using LipofectAmine2000 (Invitrogen) and monoclones were selected and tested for functional response using a Ca^2+ mobilization assay. Monoclones were named for the species (“H” for human) plus the location on the plate (e.g. “10H”).
HEK cells transfected with the human mGluR5a receptor (H10H or H12H cell line) were plated at 15,000 cells/well in clear-bottomed poly-D-lysine-coated assay plates (BD Falcon) in glutamate-glutamine-free growth medium and incubated overnight at 37° C. and 5% CO2. Cell-lines used were either the H10H or H12H cell-lines expressing the human mGluR5 receptor. The following day, the growth medium was removed and the cells were washed with assay buffer containing 1× Hank's balanced salt solution (Invitrogen, Carlsbad, Calif.), 20 mM HEPES, 2.5 mM probenecid, pH 7.4 and left with 20 μL of this reagent. Following this step, the cells were loaded with calcium indicator dye, fluo-4 AM, to a final concentration of 2 μM and incubated for 40-45 min at 37° C. The dye solution was removed and replaced with assay buffer. Cell plates were held for 10-15 min at room temperature and were then loaded into the Functional Drug Screening System 6000 (FDSS 6000, Hamamatsu, Japan).
After establishment of a fluorescence baseline for about 3 seconds, the compounds of the present invention were added to the cells, and the response in cells was measured.
In general terms: Calcium flux is commonly read through the fluorescence of an indicator in the cells.

Setting [2] is: % of maximal glutamate response.

Structures are written as SMILES.

Sequence of human mGluR5 (P41594 21-1180 isoform P41594-2 limits assumed): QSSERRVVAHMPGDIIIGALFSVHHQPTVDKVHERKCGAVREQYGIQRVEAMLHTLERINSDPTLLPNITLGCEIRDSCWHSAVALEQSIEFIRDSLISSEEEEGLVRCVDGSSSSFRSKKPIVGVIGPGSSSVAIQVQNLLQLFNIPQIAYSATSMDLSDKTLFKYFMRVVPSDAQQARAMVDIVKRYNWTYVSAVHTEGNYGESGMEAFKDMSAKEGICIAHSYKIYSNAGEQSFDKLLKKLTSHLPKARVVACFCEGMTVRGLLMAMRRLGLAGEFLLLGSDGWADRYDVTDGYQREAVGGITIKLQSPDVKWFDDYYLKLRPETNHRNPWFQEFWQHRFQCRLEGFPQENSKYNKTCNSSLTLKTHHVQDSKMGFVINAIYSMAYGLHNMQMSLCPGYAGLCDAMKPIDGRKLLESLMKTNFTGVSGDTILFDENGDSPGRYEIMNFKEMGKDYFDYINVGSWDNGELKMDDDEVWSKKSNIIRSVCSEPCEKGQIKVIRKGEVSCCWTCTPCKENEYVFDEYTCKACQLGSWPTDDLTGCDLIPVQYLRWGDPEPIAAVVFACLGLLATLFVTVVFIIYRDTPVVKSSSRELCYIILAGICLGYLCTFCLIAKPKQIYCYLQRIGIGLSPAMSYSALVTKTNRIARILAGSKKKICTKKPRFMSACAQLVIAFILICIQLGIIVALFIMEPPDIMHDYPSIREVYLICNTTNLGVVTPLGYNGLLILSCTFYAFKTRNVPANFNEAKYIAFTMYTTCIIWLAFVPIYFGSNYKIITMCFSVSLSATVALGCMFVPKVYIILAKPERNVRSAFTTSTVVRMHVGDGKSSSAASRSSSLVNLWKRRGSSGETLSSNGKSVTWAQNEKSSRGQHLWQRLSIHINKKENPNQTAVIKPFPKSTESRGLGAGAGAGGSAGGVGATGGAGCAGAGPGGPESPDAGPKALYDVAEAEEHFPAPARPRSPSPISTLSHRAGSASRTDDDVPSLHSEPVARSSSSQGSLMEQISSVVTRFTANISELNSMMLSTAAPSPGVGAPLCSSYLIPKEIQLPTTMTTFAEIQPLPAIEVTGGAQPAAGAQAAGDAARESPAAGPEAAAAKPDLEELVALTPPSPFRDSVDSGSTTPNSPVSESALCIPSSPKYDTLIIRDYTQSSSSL

A word on the melting point: it is the temperature of the solid-liquid transition. What is called Emax is the greatest response seen or fitted, relative to the assay's reference. `O=C(c1ccc(F)cn1)N1CCn2nc(OCc3ccccc3)cc2C1` [Example B28] showed a melting point of 123 °C. For the same molecule, the EC50 in data set [1] is 1510 nM. In data set [1] (setting [2]), the Emax was 60%.

In turn, `O=C(c1ccc(F)cc1)N1CCn2nc(OCc3ccncc3)cc2C1` [Example B20] returned a melting point of 178.8 °C. The EC50 in data set [1] is 457 nM. Besides, in data set [1] (setting [2]), the Emax came out at 53%.

In the case of `O=C(c1ccc(F)cc1F)N1CCn2nc(OCc3cccc(F)c3)cc2C1` [Example B129], the melting point turned out to be 115.4 °C. The EC50 in data set [1] is 97.7 nM. Also, the Emax in data set [1] (setting [2]) is 68%.

Molecule `N#Cc1cccc(COc2cc3n(n2)CCN(C(=O)c2ccccc2Cl)C3)c1` [Example B131] displayed a melting point of 116.8 °C. Further, the EC50 in data set [1] is more than 30200 nM. In addition, the maximal effect (Emax) in data set [1] (setting [2]) is 16%.

`O=C(c1ccccc1F)N1CCn2nc(OCc3ccccc3F)cc2C1` [Example B134] returned a melting point of 132.4 °C. Also, the EC50 in data set [1] was 141 nM. The Emax in data set [1] (setting [2]) amounted to 71%.

With `N#Cc1cccc(COc2cc3n(n2)CCN(C(=O)c2ccc(F)cc2)C3)c1` [Example B3, 3-[({5-[(4-fluorophenyl)carbonyl]-4,5,6,7-tetrahydropyrazolo[1,5-a]pyrazin-2-yl}oxy)methyl]benzonitrile], the melting point was more than 300 °C. Besides, the EC50 in data set [1] was 126 nM. For the same molecule, the Emax in data set [1] (setting [2]) was 60%.

The molecule `O=C(c1ccc(F)cc1F)N1CCn2nc(OCc3ccccc3F)cc2C1` [Example B133] returned a melting point of 132.8 °C. In data set [1], the EC50 is 166 nM. In addition, in data set [1] (setting [2]), the maximal effect (Emax) is 76%.

Turning to `N#Cc1cccc(COc2cc3n(n2)CCN(C(=O)c2ccccc2)C3)c1` [Example B95], the melting point came to 150.4 °C. For the same molecule, in data set [1], the EC50 was 66.1 nM. For the same molecule, the Emax in data set [1] (setting [2]) came out at 48.5%.

In the case of `Cc1nccc(C(=O)N2CCn3nc(OCc4ccccc4)cc3C2)n1` [Example B31], the melting point amounted to 134 °C. Moreover, in data set [1], the EC50 is more than 30200 nM. In addition, the maximal effect (Emax) in data set [1] (setting [2]) turned out to be 28%.

Molecule `N#Cc1cc(F)cc(C(=O)N2CCn3nc(OCc4ccccc4)cc3C2)c1` [Example B6] yielded a melting point of 117.6 °C. In data set [1], the EC50 is more than 30200 nM. In addition, the Emax in data set [1] (setting [2]) was 24%.

Turning to `N#Cc1cccc(COc2cc3n(n2)CCN(C(=O)c2cc(F)cc(F)c2)C3)c1` [Example B119], the melting point is 124 °C. For the same molecule, in data set [1], the EC50 was more than 30200 nM. For the same molecule, in data set [1] (setting [2]), the maximal response (Emax) worked out at 15%.

In the case of `Cc1cccc(COc2cc3n(n2)CCN(C(=O)c2ccc(F)cc2)C3)c1` [Example B13], the melting point was determined as 118.9 °C. The EC50 in data set [1] was 339 nM. In data set [1] (setting [2]), the Emax is 59%.

For the molecule `Cc1cccc(C(=O)N2CCn3nc(OCc4ccccc4)cc3C2)n1` [Example B32], the melting point was determined as 81.2 °C. In addition, the EC50 in data set [1] was more than 10000 nM. In addition, the maximum response (Emax) in data set [1] (setting [2]) came out at 32%.

For `N#Cc1cccc(COc2cc3n(n2)CCN(C(=O)c2cccc(F)c2)C3)c1` [Example B106], the melting point stood at 103.3 °C. In addition, in data set [1], the EC50 is 166 nM. The maximal effect (Emax) in data set [1] (setting [2]) amounted to 37%.

The molecule `COc1ccc(COc2cc3n(n2)CCN(C(=O)c2ccc(F)cc2)C3)cc1` [Example B15] gave a melting point of 108.3 °C. Besides, in data set [1], the EC50 was more than 30200 nM. The Emax in data set [1] (setting [2]) amounted to 22%.

On to `COc1ccccc1COc1cc2n(n1)CCN(C(=O)c1ccc(F)cc1)C2` [Example B17], for which the melting point turned out to be 135.6 °C. Moreover, in data set [1], the EC50 was more than 10000 nM. The Emax in data set [1] (setting [2]) worked out at 47%.

With `Cc1ccc(C(=O)N2CCn3nc(OCc4ccccc4)cc3C2)o1` [Example B56], the EC50 in data set [1] was 562 nM. Moreover, the maximal effect (Emax) in data set [1] (setting [2]) amounted to 49%.

With `CC(C)(C)NCC(=O)N1CCn2nc(OCc3ccccc3)cc2C1` [Example B25], in data set [1], the EC50 was more than 30200 nM. Besides, the maximum response (Emax) in data set [1] (setting [2]) was 20%.

On to `Cn1c(Cl)ccc1C(=O)N1CCn2nc(OCc3ccccc3)cc2C1` [Example B81], for which the EC50 in data set [1] was 25.1 nM. In addition, the Emax in data set [1] (setting [2]) is 69%.

For the molecule `CC(C)(C)CCC(=O)N1CCn2nc(OCc3ccccc3)cc2C1` [Example B26], the EC50 in data set [1] is 589 nM. The Emax in data set [1] (setting [2]) turned out to be 59%.

For the molecule `Cc1ccoc1C(=O)N1CCn2nc(OCc3ccccc3)cc2C1` [Example B54], the EC50 in data set [1] is more than 30200 nM. Further, the Emax in data set [1] (setting [2]) was determined as 20%.

For `O=C(c1ccc[nH]1)N1CCn2nc(OCc3ccccc3)cc2C1` [Example B57], in data set [1], the EC50 was 1230 nM. Further, the maximal response (Emax) in data set [1] (setting [2]) came out at 39%.

Regarding `O=C(c1ccc(F)cc1)N1CCn2nc(OCc3ccc4nccn4c3)cc2C1` [Example B118], the EC50 in data set [1] is more than 30200 nM. Besides, the Emax in data set [1] (setting [2]) is 25%.

In the case of `O=C(c1ccc(F)cc1)N1CCn2nc(OCc3cccc(C(F)F)c3)cc2C1` [Example B124], the EC50 in data set [1] is 676 nM. For the same molecule, the Emax in data set [1] (setting [2]) is 54%.

On to `C[C@H]1Cn2nc(OCc3ccccc3)cc2CN1C(=O)c1ccc(Cl)n1C` [Example B91], for which the EC50 in data set [1] was 3630 nM. In addition, the maximal effect (Emax) in data set [1] (setting [2]) came to 69%.

In the case of `O=C(c1c[nH]c2ccccc12)N1CCn2nc(OCc3ccccc3)cc2C1` [Example B59], the EC50 in data set [1] was 166 nM. Besides, the Emax in data set [1] (setting [2]) stood at 71%.

On to `O=C(c1cnccn1)N1CCn2nc(OCc3ccccc3)cc2C1` [Example B37], for which the EC50 in data set [1] is more than 10000 nM. Also, the maximal response (Emax) in data set [1] (setting [2]) came out at 44%.

Regarding `O=C(c1cncc(F)c1)N1CCn2nc(OCc3ccccc3)cc2C1` [Example B63], the EC50 in data set [1] was 2000 nM. For the same molecule, the maximum response (Emax) in data set [1] (setting [2]) was 48%.

Take `O=C(c1cc(Cl)cc(Cl)c1)N1CCn2nc(OCc3ccccc3)cc2C1` [Example B47]: in data set [1], the EC50 was 110 nM. The maximum response (Emax) in data set [1] (setting [2]) is 25%.

On to `CO[C@](C(=O)N1CCn2nc(OCc3ccccc3)cc2C1)(c1ccccc1)C(F)(F)F` [Example B87], for which, in data set [1], the EC50 is more than 30200 nM. Besides, in data set [1] (setting [2]), the maximal effect (Emax) worked out at 15%.

Regarding `CS(=O)(=O)c1cccc(COc2cc3n(n2)CCN(C(=O)c2ccc(F)cc2)C3)c1` [Example B122], the EC50 in data set [1] was more than 30200 nM. The Emax in data set [1] (setting [2]) is 28%.

Take `O=C(c1ncccn1)N1CCn2nc(OCc3ccccc3)cc2C1` [Example B51]: in data set [1], the EC50 is more than 30200 nM. The maximal response (Emax) in data set [1] (setting [2]) is 26%.

With `CC(C)(C)OCC(=O)N1CCn2nc(OCc3ccccc3)cc2C1` [Example B21], the EC50 in data set [1] was 631 nM. For the same molecule, the maximal response (Emax) in data set [1] (setting [2]) amounted to 53%.

With `O=C(c1cnc[nH]1)N1CCn2nc(OCc3ccccc3)cc2C1` [Example B58], in data set [1], the EC50 is more than 30200 nM. For the same molecule, the Emax in data set [1] (setting [2]) amounted to 22%.

Turning to `O=C(c1ccc(F)cc1)N1CCn2nc(OCc3ccncc3Cl)cc2C1` [Example B136], the EC50 in data set [1] is not below 10000 nM. Moreover, in data set [1] (setting [2]), the maximal effect (Emax) amounted to 41%.

On to `O=C(c1ccc(F)cc1)N1CCn2nc(OCc3ncccn3)cc2C1` [Example B117], for which the EC50 in data set [1] was more than 30200 nM. Besides, the Emax in data set [1] (setting [2]) was determined as 30%.

Regarding `O=C(CC1CCCC1)N1CCn2nc(OCc3ccccc3)cc2C1` [Example B67], the EC50 in data set [1] was 479 nM. The Emax in data set [1] (setting [2]) worked out at 52%.

As to `O=C(c1ccc(F)c(C(F)(F)F)c1)N1CCn2nc(OCc3ccccc3)cc2C1` [Example B39], the “Emax (%)” value in data set [1] (setting [2]) is recorded as 51%.

On to `O=C(c1cccc(Cl)c1)N1CCn2nc(OCc3ccccc3)cc2C1` [Example B43], for which the EC50 in data set [1] was 70.8 nM. The maximal effect (Emax) in data set [1] (setting [2]) was 51%.
